Data as given in patent US11192889B2, “Tetrahydronaphthyridinepentanamide integrin antagonists” (The Rockefeller University, priority 2016, dated 2021).
pEC50, pIC50: −log10 of the molar value. Where “and” joins values, the source holds several entries; their conditions need not be identical. Identical values can stand only once.

Key:
HEK-293-αVβ3 cells [1] = biological target: T1, HEK-293-αVβ3 cells (Homo sapiens, UniProt P05106+P06756); test: AP5 Binding Assay; assay type: cell-based; settings: for activation at 10 µM: relative to AP5 expression induced by cilengitide, read-out: AP5 expression induced at the highest concentration; for pEC50: concentration inducing 50% of the AP5 expression induced by 1 μM cilengitide
Source text: (§1) HEK-293 Cells Expressing αVβ3. HEK-293 cells were transfected using lipofectamine 2000 (Invitrogen #11668030) with the cDNA for αV using the pEF1/V5-His A vector and the cDNA for β3 using the vector pcDNA3.1. Cells expressing αVβ3 were identified by their reaction with murine monoclonal antibodies (mAbs) LM609 and 7E3, and stable cell lines were established by repetitive sorting using LM609. […] HEK-293-αVβ3 cells for assays are counted in an automated cell counter (ADVIA 120) and adjusted to values appropriate for each assay.
AP5 Binding Assay. HEK-293-αVβ3 cells are harvested using 0.05% trypsin 0.5 mM EDTA, washed with HBMT once, and resuspended in HBMT containing 1 mM Mg2+ and 2 mM Ca2+. The cells are counted and adjusted to 0.5×10^6 cells per sample. The compound to be tested and fluorescently labeled mAb AP5 (either Alexa 488 or Alexa 674; 10 μg/mL) are added and incubated for 30 minutes at 37° C. The cells are then washed and analyzed by flow cytometry (BD FACSCalibur) at the appropriate wavelength for detecting the AP5 fluorophore. In each assay, cilengitide (1 μM) and 10 mM EDTA are included as positive controls and untreated cells are used as the negative control. The concentration of the test compound required to induce the expression of 50% of the AP5 expression induced by cilengitide is calculated and defined as the EC50. The EC50 for cilengitide was determined based on the expression induced by EDTA.

HEK-293-αVβ3 cells [2] = biological target: T1, HEK-293-αVβ3 cells; test: αVβ3 Cell Adhesion to Fibrinogen Assay; assay type: cell-based; parameters: IC50; other: dose reducing by 50% the adhesion of HEK-293-αVβ3 cells to fibrinogen; untreated cells 100% adhesion, 10 mM EDTA 0%; settings: for pIC50: dose reducing by 50% the adhesion of HEK-293-αVβ3 cells to fibrinogen, separate determinations listed
Source text: as §1
αVβ3 Cell Adhesion to Fibrinogen Assay. Polystyrene 96-well microtiter plates (Costar, 3590) are precoated with 3.5 μg/mL of purified fibrinogen (Enzyme Research Laboratories) in 0.15 M NaCl, 0.01 M Tris/HCL, pH 7.4 for 1 hour at 37° C. The wells are then washed and incubated with HEPES-Buffered Modified Tyrode's solution (HBMT; 0.128 M NaCl, 10 mM HEPES, 12 mM NaHCO3, 0.4 mM NaH2PO4, 2.7 mM KCl, 0.35% bovine serum albumin (Fisher), 0.1% glucose, pH 7.4) for 1 hour at room temperature or overnight at 4° C. Wells are washed with HBMT containing 1 mM Mg2+ and 2 mM Ca2+ and then 50 μL of HEK-293-αVβ3 cells that have been pretreated with the compound to be tested for 20 minutes at room temperature are added to each well at a concentration of 3,000 cells/μL. After 30-32 minutes the wells are washed with HBMT containing Ca2+ and Mg2+ three times and then the adherent cells are lysed and the acid phosphatase activity that is released is measured by: 1. adding phosphatase substrate (Sigma EC 224-246-5) at 2 mg/mL in 0.1 M Na citrate, pH 5.6, 0.1% triton X-100 for 1 hour at room temperature; 2. stopping the reaction by adding 50 μL of 2 M NaOH; and 3. analyzing the samples in a spectrophotometer at 405 nm. In each assay, 10 mM EDTA is used as a positive control and untreated cells are used as a negative control. The IC50 is the dose of test compound that reduces by 50% the adhesion of the HEK-293-αVβ3 cells, taking the results with untreated cells as 100% and the results in the presence of EDTA as 0%. In some instances more than one IC50 determination was made, in which case, results of separate determinations are reported. IC50's were not determined for all compounds in the table; for some of these test compounds the inhibition at specific doses are reported. In some instances, the test compound produced a greater reduction than 10 mM EDTA, and these are shown as negative numbers.

T1 sequence (P05106 whole entry): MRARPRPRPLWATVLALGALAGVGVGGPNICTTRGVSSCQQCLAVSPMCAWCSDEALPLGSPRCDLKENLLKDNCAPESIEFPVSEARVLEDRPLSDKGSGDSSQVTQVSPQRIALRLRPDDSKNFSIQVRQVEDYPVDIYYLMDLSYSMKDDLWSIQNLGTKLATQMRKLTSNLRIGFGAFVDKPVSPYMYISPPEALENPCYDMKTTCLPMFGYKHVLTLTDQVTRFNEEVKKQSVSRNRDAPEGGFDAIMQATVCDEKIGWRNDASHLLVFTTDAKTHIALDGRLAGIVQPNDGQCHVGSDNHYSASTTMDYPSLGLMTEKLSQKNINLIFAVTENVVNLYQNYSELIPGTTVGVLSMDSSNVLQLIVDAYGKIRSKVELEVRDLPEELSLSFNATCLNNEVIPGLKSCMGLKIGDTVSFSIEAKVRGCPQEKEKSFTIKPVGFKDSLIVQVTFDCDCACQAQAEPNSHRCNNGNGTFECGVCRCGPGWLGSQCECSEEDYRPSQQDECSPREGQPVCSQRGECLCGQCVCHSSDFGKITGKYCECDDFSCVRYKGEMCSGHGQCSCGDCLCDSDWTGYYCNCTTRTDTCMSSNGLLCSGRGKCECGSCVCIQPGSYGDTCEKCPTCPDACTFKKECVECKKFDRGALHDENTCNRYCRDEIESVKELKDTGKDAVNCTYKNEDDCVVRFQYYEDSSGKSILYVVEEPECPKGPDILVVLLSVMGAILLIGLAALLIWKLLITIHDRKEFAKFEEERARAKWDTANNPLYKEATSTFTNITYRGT
T1 sequence (P06756 whole entry): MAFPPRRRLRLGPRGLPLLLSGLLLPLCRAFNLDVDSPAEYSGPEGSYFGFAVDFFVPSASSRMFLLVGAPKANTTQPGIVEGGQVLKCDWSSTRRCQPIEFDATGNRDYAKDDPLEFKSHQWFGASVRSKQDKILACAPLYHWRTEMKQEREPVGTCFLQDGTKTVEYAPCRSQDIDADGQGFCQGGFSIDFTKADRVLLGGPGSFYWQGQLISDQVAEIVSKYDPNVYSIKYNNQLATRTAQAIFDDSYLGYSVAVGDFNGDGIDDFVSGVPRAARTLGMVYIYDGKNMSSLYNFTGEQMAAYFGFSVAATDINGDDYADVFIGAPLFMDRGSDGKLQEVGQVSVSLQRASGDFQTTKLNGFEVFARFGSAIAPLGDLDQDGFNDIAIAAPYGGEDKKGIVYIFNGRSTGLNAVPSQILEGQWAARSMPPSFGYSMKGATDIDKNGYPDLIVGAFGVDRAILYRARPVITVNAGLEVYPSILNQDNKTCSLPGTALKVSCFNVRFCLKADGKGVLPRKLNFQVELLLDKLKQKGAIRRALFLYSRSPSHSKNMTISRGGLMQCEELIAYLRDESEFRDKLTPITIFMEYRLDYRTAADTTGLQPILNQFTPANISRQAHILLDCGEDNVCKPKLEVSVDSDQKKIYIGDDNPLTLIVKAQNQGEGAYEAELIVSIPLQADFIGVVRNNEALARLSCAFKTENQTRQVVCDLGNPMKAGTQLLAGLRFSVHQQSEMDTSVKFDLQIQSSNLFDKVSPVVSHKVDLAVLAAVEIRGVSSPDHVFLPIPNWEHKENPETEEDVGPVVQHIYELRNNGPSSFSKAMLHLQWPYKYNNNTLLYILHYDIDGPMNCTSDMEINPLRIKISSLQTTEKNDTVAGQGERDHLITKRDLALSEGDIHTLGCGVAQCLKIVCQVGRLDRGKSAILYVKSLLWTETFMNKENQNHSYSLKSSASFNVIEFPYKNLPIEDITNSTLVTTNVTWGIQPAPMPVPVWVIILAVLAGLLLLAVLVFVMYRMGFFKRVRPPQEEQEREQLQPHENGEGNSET

## O=C(CCCCc1ccc2c(n1)NCCC2)NCCC(NS(=O)(=O)c1cccnc1)C(=O)O (stereo not shown) [Example 44]
HEK-293-αVβ3 cells [1]
  activation at 10 µM: 22%
  pEC50: < 5.00
HEK-293-αVβ3 cells [2]; dose 0.1 (table in μM), untreated cells 100% adhesion, 10 mM EDTA 0%
  inhibition at specific dose 0.1: 40%
HEK-293-αVβ3 cells [2]
  pIC50: 5.88

## CC1(C)[C@@H]2CC[C@]1(CS(=O)(=O)NC(CCNC(=O)CCCCc1ccc3c(n1)NCCC3)C(=O)O)C(=O)C2 (stereo partly shown) [Example 50]
HEK-293-αVβ3 cells [1]
  activation at 10 µM: 16%
  pEC50: < 5.00
HEK-293-αVβ3 cells [2]
  pIC50: > 7.00

## COc1ccc(COC(=O)NC(CCNC(=O)CCCCc2ccc3c(n2)NCCC3)C(=O)O)cc1 (stereo not shown) [Example 60]
HEK-293-αVβ3 cells [1]
  activation at 10 µM: 10%
  pEC50: < 5.00
HEK-293-αVβ3 cells [2]
  pIC50: 6.24

## O=C(CCCCc1ccc2c(n1)NCCC2)NCCC(NC(=O)OCCc1ccccc1)C(=O)O (stereo not shown) [Example 61]
HEK-293-αVβ3 cells [1]
  activation at 10 µM: 14%
  pEC50: < 5.00
HEK-293-αVβ3 cells [2]
  pIC50: 6.23

## O=C(CCCCc1ccc2c(n1)NCCC2)NCCC(NC(=O)OCC(F)(F)C(F)(F)F)C(=O)O (stereo not shown) [Example 62]
HEK-293-αVβ3 cells [1]
  activation at 10 µM: 12%
  pEC50: < 5.00
HEK-293-αVβ3 cells [2]
  pIC50: 6.20

## COc1ccccc1COC(=O)NC(CCNC(=O)CCCCc1ccc2c(n1)NCCC2)C(=O)O (stereo not shown) [Example 63]
HEK-293-αVβ3 cells [1]
  activation at 10 µM: 16%
  pEC50: < 5.00
HEK-293-αVβ3 cells [2]
  pIC50: 6.31

## O=C(CCCCc1ccc2c(n1)NCCC2)NCCC(NC(=O)OCC1CCC(F)(F)CC1)C(=O)O (stereo not shown) [Example 64]
HEK-293-αVβ3 cells [1]
  activation at 10 µM: 21%
  pEC50: < 5.00
HEK-293-αVβ3 cells [2]
  pIC50: 6.61 and 6.44

## O=C(CCCCc1ccc2c(n1)NCCC2)NCCC(NC(=O)OCc1ccccc1F)C(=O)O (stereo not shown) [Example 65]
HEK-293-αVβ3 cells [1]
  activation at 10 µM: 13%
  pEC50: < 5.00
HEK-293-αVβ3 cells [2]
  pIC50: 6.92

## O=C(CCCCc1ccc2c(n1)NCCC2)NCCC(NC(=O)OCc1cccc(F)c1)C(=O)O (stereo not shown) [Example 66]
HEK-293-αVβ3 cells [1]
  activation at 10 µM: 12%
  pEC50: < 5.00
HEK-293-αVβ3 cells [2]
  pIC50: 6.27

## O=C(CCCCc1ccc2c(n1)NCCC2)NCCC(NC(=O)OCc1ccc(F)cc1)C(=O)O (stereo not shown) [Example 67]
HEK-293-αVβ3 cells [1]
  activation at 10 µM: 13%
  pEC50: < 5.00
HEK-293-αVβ3 cells [2]
  pIC50: 6.49

## O=C(CCCCc1ccc2c(n1)NCCC2)NCCC(NC(=O)OCc1ccc(F)c(F)c1)C(=O)O (stereo not shown) [Example 68]
HEK-293-αVβ3 cells [1]
  activation at 10 µM: 9%
  pEC50: < 5.00
HEK-293-αVβ3 cells [2]
  pIC50: 6.49

## O=C(CCCCc1ccc2c(n1)NCCC2)NCCC(Nc1nc2ccccc2o1)C(=O)O (stereo not shown) [Example 69, 2-(1,3-benzoxazol-2-ylamino)-4-[5-(5,6,7,8-tetrahydro-1,8-naphthyridin-2-yl)pentanoylamino]butanoic acid]
HEK-293-αVβ3 cells [1]
  activation at 10 µM: 7%
  pEC50: < 5.00
HEK-293-αVβ3 cells [2]
  pIC50: 6.68

## O=C(CCCCc1ccc2c(n1)NCCC2)NCCC(Nc1nc2ccccc2s1)C(=O)O (stereo not shown) [Example 70, 2-(1,3-Benzothiazol-2-ylamino)-4-[5-(5,6,7,8-tetrahydro-1,8-naphthyridin-2-yl)pentanoylamino]butanoic acid]
HEK-293-αVβ3 cells [1]
  activation at 10 µM: 6%
  pEC50: < 5.00
HEK-293-αVβ3 cells [2]
  pIC50: 6.28

## COc1cccc(C(=O)NC(CCNC(=O)CCCCc2ccc3c(n2)NCCC3)C(=O)O)n1 (stereo not shown) [Example 71, 2-[(6-methoxypyridine-2-carbonyl)amino]-4-[5-(5,6,7,8-tetrahydro-1,8-naphthyridin-2-yl)pentanoylamino]butanoic acid]
HEK-293-αVβ3 cells [1]
  activation at 10 µM: 9%
  pEC50: < 5.00
HEK-293-αVβ3 cells [2]
  pIC50: 5.94

## O=C(CCCCc1ccc2c(n1)NCCC2)NCCC(NC(=O)c1ncc(-c2ccccc2)s1)C(=O)O (stereo not shown) [Example 72, 2-[(5-phenylthiazole-2-carbonyl)amino]-4-[5-(5,6,7,8-tetrahydro-1,8-naphthyridin-2-yl)pentanoylamino]butanoic acid]
HEK-293-αVβ3 cells [1]
  activation at 10 µM: 6%
  pEC50: < 5.00
HEK-293-αVβ3 cells [2]
  pIC50: 6.74 and 7.04 and 6.73

## O=C(CCCCc1ccc2c(n1)NCCC2)NCCC(NC(=O)c1nc2ccccc2n1CC1CC1)C(=O)O (stereo not shown) [Example 73, 2-[[1-(cyclopropylmethyl)benzimidazole-2-carbonyl]amino]-4-[5-(5,6,7,8-tetrahydro-1,8-naphthyridin-2-yl)pentanoylamino]butanoic acid]
HEK-293-αVβ3 cells [1]
  activation at 10 µM: 2.5%
  pEC50: < 5.00
HEK-293-αVβ3 cells [2]
  pIC50: 6.30 and 6.85

## O=C(CCCCc1ccc2c(n1)NCCC2)NCCC(NC(=O)c1nc2ccccc2o1)C(=O)O (stereo not shown) [Example 74, 2-(1,3-benzoxazole-2-carbonylamino)-4-[5-(5,6,7,8-tetrahydro-1,8-naphthyridin-2-yl)pentanoylamino]butanoic acid]
HEK-293-αVβ3 cells [1]
  activation at 10 µM: 4%
  pEC50: < 5.00
HEK-293-αVβ3 cells [2]
  pIC50: 6.94

## O=C(CCCCc1ccc2c(n1)NCCC2)NCCC(NC(=O)c1nc2ccccc2s1)C(=O)O (stereo not shown) [Example 75, 2-(1,3-benzothiazole-2-carbonylamino)-4-[5-(5,6,7,8-tetrahydro-1,8-naphthyridin-2-yl)pentanoylamino]butanoic acid]
HEK-293-αVβ3 cells [1]
  activation at 10 µM: 9%
  pEC50: < 5.00
HEK-293-αVβ3 cells [2]
  pIC50: > 7.00 and 7.26 and 7.19

## O=C(CCCCc1ccc2c(n1)NCCC2)NCCC(C(=O)O)n1cc(-c2ccccc2)nn1 (stereo not shown) [Example 76, 2-(4-phenyltriazol-1-yl)-4-[5-(5,6,7,8-tetrahydro-1,8-naphthyridin-2-yl)pentanoylamino]butanoic acid]
HEK-293-αVβ3 cells [1]
  activation at 10 µM: 9%
  pEC50: < 5.00
HEK-293-αVβ3 cells [2]
  pIC50: 6.03

## CC(C)Cc1cn(C(CCNC(=O)CCCCc2ccc3c(n2)NCCC3)C(=O)O)nn1 (stereo not shown) [Example 77, 2-(4-isobutyltriazol-1-yl)-4-[5-(5,6,7,8-tetrahydro-1,8-naphthyridin-2-yl)pentanoylamino]butanoic acid]
HEK-293-αVβ3 cells [1]
  activation at 10 µM: 8%
  pEC50: < 5.00
HEK-293-αVβ3 cells [2]
  pIC50: 5.69

## O=C(CCCCc1ccc2c(n1)NCCC2)NCCC(C(=O)O)n1cnc(-c2ccccc2)n1 (stereo not shown) [Example 78, 2-(3-phenyl-1,2,4-triazol-1-yl)-4-[5-(5,6,7,8-tetrahydro-1,8-naphthyridin-2-yl)pentanoylamino]butanoic acid]
HEK-293-αVβ3 cells [1]
  activation at 10 µM: 10%
  pEC50: < 5.00
HEK-293-αVβ3 cells [2]
  pIC50: 6.29

## COc1ccc(C(CCNC(=O)CCCCc2ccc3c(n2)NCCC3)C(=O)O)cn1 (stereo not shown) [Example 79, 2-(6-methoxy-3-pyridyl)-4-[5-(5,6,7,8-tetrahydro-1,8-naphthyridin-2-yl)pentanoylamino]butanoic acid]
HEK-293-αVβ3 cells [1]
  activation at 10 µM: 19%
  pEC50: < 5.00
HEK-293-αVβ3 cells [2]
  pIC50: 6.27

## O=C(CCCCc1ccc2c(n1)NCCC2)NCCC(C(=O)O)c1ccc(Oc2ccccc2)nc1 (stereo not shown) [Example 80, 2-(6-phenoxy-3-pyridyl)-4-[5-(5,6,7,8-tetrahydro-1,8-naphthyridin-2-yl)pentanoylamino]butanoic acid]
HEK-293-αVβ3 cells [1]
  activation at 10 µM: 7.5%
  pEC50: < 5.00
HEK-293-αVβ3 cells [2]
  pIC50: 5.80 and 6.37

## O=C(CCCCc1ccc2c(n1)NCCC2)NCCC(Nc1ncc(-c2ccccc2)cn1)C(=O)O (stereo not shown) [Example 81, 2-[(5-phenylpyrimidin-2-yl)amino]-4-[5-(5,6,7,8-tetrahydro-1,8-naphthyridin-2-yl)pentanoylamino]butanoic acid]
HEK-293-αVβ3 cells [1]
  activation at 10 µM: 9%
  pEC50: < 5.00
HEK-293-αVβ3 cells [2]
  pIC50: > 7.00 and 7.00 and 6.84

## O=C(CCCCc1nc2c(cc1C1CC1)CCCN2)NCCC(NC(=O)OCc1ccccc1)C(=O)O (stereo not shown) [Example 82, 2-(benzyloxycarbonyl-amino)-4-[5-(3-cyclopropyl-5,6,7,8-tetrahydro-1,8-naphthyridin-2-yl)pentanoyl-amino]butanoic acid]
HEK-293-αVβ3 cells [1]
  activation at 10 µM: 12%
  pEC50: < 5.00
HEK-293-αVβ3 cells [2]
  pIC50: 6.69
